Measurements as given in patent US9592260B2, “Cancer therapy with a parvovirus combined with an HDAC inhibitor” (priority 2010, dated 2017).

Tests used:
[1] = tested on: cervical carcinoma cell cultures (HeLa, CaSki, SiHa, CxCa); assay: LDH assay, H-1PV with or without HDACI, statements over all cervical cultures; assay type: cell-based, human; conditions: VPA 1 mM, 72 h, FIG. 5
Procedure: Cervical cancer derived cell lines (HeLa, CaSki, SiHa) and non-established cervical cancer cell cultures (CxCa) were infected with H-1PV at the indicated MOIs (pfu/cell) and grown for 72 h in the presence (grey bars) or absence (white bars) of VPA (1 mM). After incubation, cell lysis was evaluated by measuring the release of lactate dehydrogenase (LDH). Hatched bars at the right hand side of each chart show the minimal dose of H-1PV able to kill 90-100% of the cancer cells as monotherapy.
The sub-lethal dose of VPA boosted parvovirus-induced cell killing in a synergistic manner, increasing by up to 50-100%. […] Similar results were also obtained combining H-1PV with NaB, TSA or SaHa (Table 2).

[2] = tested on: Capan-1; assay: LDH assay, H-1PV with or without VPA, PDAC cells; conditions: 72 hours, H-1PV at various MOI, FIG. 7
Procedure: (§1) APC-1 and Capan-1 cells were plated in 96 wells plates (2000 cells/well). After 16 hours, cell were infected with H-1PV at the indicated MOI and grown in the presence or absence of VPA for additional 72 hours. Cellular lysis was measured by LDH assay.
(§2) Parvovirus cytotoxicity was measured by evaluating the release of lactate dehydrogenase in the medium using the CytoTox 96 kit from Promega (Mannheim, Germany). The day before infection, 2000 cells were seeded per well in 96-well plate in 50 μl of culture medium. After 24 hours, cells were infected with 50 μl of serum-free medium containing H-1PV or treated with HDAC inhibitors in 7 replicates per condition. The day of measurement, 3 out of 7 wells were incubated for 30 minutes with lysis buffer to estimate the maximum LDH release under conditions of 100% lysis. Afterwards, the plate was centrifuged and 50 μl of supernatant were mixed with the substrate mix. The LDH enzyme catalyzes a colorimetric reaction that is indicative of the amount of enzyme released in the medium. After 30 minutes, the reaction was stopped and analyzed using the Elisa reader MultiScan at 492 nm.
(§3) Cells were seeded in 96 wells plate and then infected with various concentrations of H-1PV in the presence or absence of the HDACI Valproic acid (VPA).

[3] = tested on: AsPC-1; assay: LDH assay, H-1PV with or without VPA, PDAC cells; conditions: AsPC-1 (printed AP-1), 72 hours, H-1PV at various MOI, FIG. 7
Procedure: as §1, §2, §3

[4] = tested on: HeLa established tumors; assay type: in vivo, nude rat; conditions: VPA 100 mg/kg; compared with mock-treated controls
From the text: Data shown represents the average values with standard deviation bars.

CCCC(CCC)C(=O)O [VPA, valproic acid]
effect on cellular growth when applied singly [1]: did not have any significant effect | cell lysis / cytotoxicity (LDH assay) [2]: no effect | cell lysis / cytotoxicity (LDH assay) [3]: no effect | tumour growth [4]: failed to impair tumour growth
